{"source": "patent US20160272992A1", "about": "“PROTECTION OF PLANTS AGAINST OXIDATIVE STRESS” (priority 2013, published 2016)", "key": {"Arabidopsis first leaves": {"test_system": "Arabidopsis first leaves", "assay": "Abaxial epidermal cell number of first leaves of plants grown on HU", "format": "in vivo, Arabidopsis thaliana", "conditions": "for reduction in epidermal cell number: grown 3 weeks on 1 mM HU, first leaves", "method": "The smr5 (SALK_100918) and smr7 (SALK_128496) alleles were acquired from the Arabidopsis Biological Research Center. The atm-1, atr-2 and sog1-1 mutants have been described previously (Garcia et al., 2003; Preuss and Britt, 2003; Culligan et al., 2004; Yoshiyama et al., 2009). Unless stated otherwise, plants of Arabidopsis thaliana (L.) Heyhn (ecotype Columbia), were grown under long-day conditions (16 hours of light, 8 hours of darkness) at 22° C. on half-strength Murashige and Skoog (MS) germination medium (Murashige and Skoog, 1962). Arabidopsis plants were treated with HU as described by Cools et al. (2011). For bleomycin treatments, five-day-old seedlings were transferred into liquid MS medium supplemented with 0.3 μg/mL bleomycin. For γ-irradiation treatments, five-day-old in vitro-grown plantlets were irradiated with γ-rays at a dose of 20 Gy. For light treatments, one-week-old seedlings were transferred to continuous high-light conditions (growth rooms kept at 22° C. with 24-hour day/0-hour night cycles and a light intensity of 300-400 μmol m^−2 s^−1) for 2 days, and subsequently retransferred to low-light conditions. The first leaf pair was harvested and incubated in 100% ethanol for epidermis cell drawing as described by De Veylder et al. (2001).\nFor leaf measurements, first leaves were harvested at 21 days after sowing on control medium, medium supplemented with 1 mM hydroxyurea or 0.3 μg/mL bleomycin. […] The total (blade) area was determined from images digitized directly with a digital camera (Olympus BX51 microscope) mounted on a binocular (Stemi SV 11; Zeiss). From scanned drawing-tube images of the outlines of at least 30 cells of the abaxial epidermis located between 25% to 75% of the distance between the tip and the base of the leaf, halfway between the midrib and the leaf margin, the following parameters were determined: total area of all cells in the drawing and total numbers of pavement and guard cells, from which the average cell area was calculated. […] For confocal microscopy, root meristems were analyzed 2 days after transfer using a Zeiss LSM 510 Laser Scanning Microscope and the LSM Browser version 4.2 software (Zeiss). […] GFP fluorescence was detected with the 488-nm line of an Argon laser. GFP and PI were detected simultaneously by combining the settings indicated above in the sequential scanning facility of the microscope. Acquired images were quantitatively analyzed with the ImageJ v1.45s software (on the World Wide Web at rsbweb.nih.gov/ij/) and Cell-o-Tape plug-ins (French et al., 2012). Chlorophyll a fluorescence parameters were measured using the IMAGING PAM M-Series Chlorofyll Fluorescence (Walz) and associated software. […]"}, "Arabidopsis seedlings": {"test_system": "Arabidopsis seedlings", "assay": "High-light transfer of seedlings: PSII efficiency (chlorophyll a fluorescence) and leaf appearance", "format": "in vivo, Arabidopsis thaliana", "experimental": "Unless stated otherwise, plants of Arabidopsis thaliana (L.) Heyhn (ecotype Columbia), were grown under long-day conditions (16 hours of light, 8 hours of darkness) at 22° C. on half-strength Murashige and Skoog (MS) germination medium (Murashige and Skoog, 1962). Arabidopsis plants were treated with HU as described by Cools et al. (2011). […] For light treatments, one-week-old seedlings were transferred to continuous high-light conditions (growth rooms kept at 22° C. with 24-hour day/0-hour night cycles and a light intensity of 300-400 μmol m^−2 s^−1) for 2 days, and subsequently retransferred to low-light conditions."}, "catalase": {"test_system": "catalase", "assay": "Catalase assay (H2O2 breakdown by leaf protein extract)", "format": "biochemical, Arabidopsis thaliana", "conditions": "extracts of control plants germinated on 1 mM HU", "method": "Plants were germinated on either control medium, medium with 1 mM HU or 6 μM 3-AT. Leaf tissue of 10 plants was ground in 200 μL extraction buffer (60 mM Tris (pH 6.9), 1 mM phenylmethylsulfonylfluoride, 10 mM DTT) on ice. The homogenate was centrifuged at 13,000 g for 15 minutes at 4° C. A total of 45 μg protein extract was mixed with potassium phosphate buffer (50 mM, pH 7.0) (Vandenabeele et al., 2004). After addition of 11.4 μL H2O2 (7.5%), the absorbance of the sample at 240 nm after 0 and 60 seconds was measured to determine catalase activity by H2O2 breakdown (Beers and Sizer, 1952; Vandenabeele et al., 2004)."}, "ZmSMRg and ZmSMRh": {"test_system": "ZmSMRg and ZmSMRh", "assay": "qRT-PCR of maize SMR genes after HU treatment", "format": "in vivo", "conditions": "root tips and leaves"}}, "data": [{"smiles": "NC(=O)NO", "note": "[HU, hydroxyurea]", "values": [{"measurement": "reduction in leaf size and cell number", "setting": "Arabidopsis first leaves; SMR5^KO SMR7^KO double mutant, 1 mM HU, compared with single knockouts", "value": "even less"}, {"measurement": "reduction in epidermal cell number", "setting": "Arabidopsis first leaves; SMR5^KO plants", "value": 29, "unit": "%"}, {"measurement": "reduction in epidermal cell number", "setting": "Arabidopsis first leaves; SMR7^KO plants", "value": 30, "unit": "%"}, {"measurement": "reduction in epidermal cell number", "setting": "Arabidopsis first leaves; control plants (Col-0)", "value": 47, "unit": "%"}, {"measurement": "maximum quantum efficiency of PSII (F′v/F′m)", "setting": "Arabidopsis seedlings; one-week-old seedlings, 48 hours high light, in the presence of HU vs absence", "value": "decrease was even more pronounced"}, {"measurement": "anthocyanin accumulation after transfer to high light", "setting": "Arabidopsis seedlings; plants grown in the presence of HU, within 48 hours after transfer", "value": "accumulated anthocyanins in the young leaf tissue"}, {"measurement": "H2O2 decomposition rate of plant extracts", "setting": "catalase", "value": "reduced H2O2 decomposition rate"}, {"measurement": "transcriptional induction of maize SMR genes ZmSMRg and ZmSMRh", "setting": "ZmSMRg and ZmSMRh", "value": "strong up-regulation"}]}]}
